The record followed here is the supplement of paper PMC10307832.

Common to all, as to assay: relative viability (nuclei count vs DMSO), 5 days (fraction); higher = more cells survive
Compound in the assay “Bortezomib + Trametinib”: CC(C)C[C@H](NC(=O)[C@H](Cc1ccccc1)NC(=O)c1cnccn1)B(O)O [Bortezomib] + CC(=O)Nc1cccc(-n2c(=O)n(C3CC3)c(=O)c3c(Nc4ccc(I)cc4F)n(C)c(=O)c(C)c32)c1 [Trametinib] (partner 0.02 µM)
An outline of the steps: (§1)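 Cells from lung cancer lines were seeded into 1536-well plates and, one day later, dosed by pin tool. Treatments were either a single drug or a fixed dose of an anchor drug with five library-drug doses (not always all listed) in √10 steps. After 5 days, nuclei were stained in a one-step fixation (final 0.05% Triton X-100, 1% formaldehyde, 1 ug/ml Hoechst) and counted on 4× images, and relative viability is the treated-to-vehicle nuclei ratio, as the median of duplicate plates.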

Compound in assay [1]: CC1=CC(=NN1)NC2=CC(=NC(=N2)/C=C/C3=CC=CC=C3)N4CCN(CC4)C + Cc1cc(Nc2cc(N3CCN(C)CC3)nc(Sc3ccc(NC(=O)C4CC4)cc3)n2)n[nH]1 [Tozasertib] (partner 0.1 µM)
An outline of the steps: as §1

Compound in the assay “Obatoclax + OSI-027”: COC1=CC(c2cc3ccccc3[nH]2)=N/C1=C\c1[nH]c(C)cc1C [Obatoclax] + COc1cccc2cc(-c3nc([C@H]4CC[C@H](C(=O)O)CC4)n4ncnc(N)c34)[nH]c12 [OSI-027] (partner 0.5 µM)
An outline of the steps: as §1

Compound in the assay “Obatoclax + Vorinostat”: COC1=CC(c2cc3ccccc3[nH]2)=N/C1=C\c1[nH]c(C)cc1C [Obatoclax] + O=C(CCCCCCC(=O)Nc1ccccc1)NO [Vorinostat] (partner 1 µM)
Put shortly:
as §1

Consider LXF-289, for which the relative viability with Bortezomib + Trametinib (first compound 0.0002 µM) was 0.699; in the assay with Bortezomib + Trametinib (first compound 0.000632 µM), 0.672; with Bortezomib + Trametinib (first compound 0.002 µM), 0.768; with Bortezomib + Trametinib (first compound 0.006325 µM) it was 0.113; with Bortezomib + Trametinib (first compound 0.02 µM), 0.101; in assay [1] (first compound 0.08 µM), 0.192. Further, the relative viability in assay [1] (first compound 0.253 µM) is 0.142; in assay [1] (first compound 0.8 µM) it was 0.191; in assay [1] (first compound 2.53 µM), 0.113; in assay [1] (first compound 8 µM), 0.0447; with Obatoclax + OSI-027 (first compound 0.01 µM), 0.78; in the assay with Obatoclax + OSI-027 (first compound 0.03162 µM) it was 0.77. The relative viability amounted to 0.68 with Obatoclax + OSI-027 (first compound 0.1 µM); 0.765 with Obatoclax + OSI-027 (first compound 0.3162 µM); 0.691 with Obatoclax + OSI-027 (first compound 1 µM); 0.714 with Obatoclax + Vorinostat (first compound 0.01 µM); 0.725 with Obatoclax + Vorinostat (first compound 0.03162 µM); 0.798 with Obatoclax + Vorinostat (first compound 0.1 µM). The relative viability with Obatoclax + Vorinostat (first compound 0.3162 µM) stood at 0.775; with Obatoclax + Vorinostat (first compound 1 µM) it was 0.601.

Turning to COR-L23, the relative viability in the assay with Bortezomib + Trametinib (first compound 0.0002 µM) is 0.478; with Bortezomib + Trametinib (first compound 0.000632 µM) it was 0.586; with Bortezomib + Trametinib (first compound 0.002 µM) it was 0.704; with Bortezomib + Trametinib (first compound 0.006325 µM), 0.0593; with Bortezomib + Trametinib (first compound 0.02 µM), 0.06; in assay [1] (first compound 0.08 µM), 0.163. In addition, the relative viability in assay [1] (first compound 0.253 µM) came to 0.182; in assay [1] (first compound 0.8 µM) it was 0.148; in assay [1] (first compound 2.53 µM) it was 0.1; in assay [1] (first compound 8 µM), 0.0908; with Obatoclax + OSI-027 (first compound 0.01 µM), 0.715; with Obatoclax + OSI-027 (first compound 0.03162 µM) it was 0.853. For the same cell line, the relative viability with Obatoclax + OSI-027 (first compound 0.1 µM) amounted to 0.786; with Obatoclax + OSI-027 (first compound 0.3162 µM), 0.405; with Obatoclax + OSI-027 (first compound 1 µM) it was 0.177; with Obatoclax + Vorinostat (first compound 0.01 µM) it was 0.562; in the assay with Obatoclax + Vorinostat (first compound 0.03162 µM), 0.507; in the assay with Obatoclax + Vorinostat (first compound 0.1 µM) it was 0.42. The relative viability was determined as 0.166 with Obatoclax + Vorinostat (first compound 0.3162 µM) and 0.18 with Obatoclax + Vorinostat (first compound 1 µM).

Regarding RERF-LC-KJ, the relative viability in the assay with Bortezomib + Trametinib (first compound 0.0002 µM) was determined as 0.868; in the assay with Bortezomib + Trametinib (first compound 0.000632 µM) it was 0.863; with Bortezomib + Trametinib (first compound 0.002 µM), 0.823; with Bortezomib + Trametinib (first compound 0.006325 µM), 0.395; with Bortezomib + Trametinib (first compound 0.02 µM), 0.199; in assay [1] (first compound 0.08 µM) it was 0.545. The relative viability turned out to be 0.437 in assay [1] (first compound 0.253 µM); 0.306 in assay [1] (first compound 0.8 µM); 0.197 in assay [1] (first compound 2.53 µM); 0.2 in assay [1] (first compound 8 µM); 0.578 with Obatoclax + OSI-027 (first compound 0.01 µM); 0.554 with Obatoclax + OSI-027 (first compound 0.03162 µM). For the same cell line, the relative viability amounted to 0.553 in the assay with Obatoclax + OSI-027 (first compound 0.1 µM); 0.475 with Obatoclax + OSI-027 (first compound 0.3162 µM); 0.268 with Obatoclax + OSI-027 (first compound 1 µM); 0.649 with Obatoclax + Vorinostat (first compound 0.01 µM); 0.791 in the assay with Obatoclax + Vorinostat (first compound 0.03162 µM); 0.709 with Obatoclax + Vorinostat (first compound 0.1 µM). Besides, the results for the relative viability with Obatoclax + Vorinostat (first compound 0.3162 µM) and with Obatoclax + Vorinostat (first compound 1 µM) were 0.595 and 0.474, respectively.

With NCI-H1755, the relative viability with Bortezomib + Trametinib (first compound 0.0002 µM) was 0.761; with Bortezomib + Trametinib (first compound 0.000632 µM), 0.77; in the assay with Bortezomib + Trametinib (first compound 0.002 µM), 0.706; with Bortezomib + Trametinib (first compound 0.006325 µM) it was 0.279; with Bortezomib + Trametinib (first compound 0.02 µM) it was 0.223; in assay [1] (first compound 0.08 µM), 0.539. For the same cell line, the relative viability in assay [1] (first compound 0.253 µM) was 0.563; in assay [1] (first compound 0.8 µM) it was 0.524; in assay [1] (first compound 2.53 µM), 0.333; in assay [1] (first compound 8 µM), 0.211; with Obatoclax + OSI-027 (first compound 0.01 µM), 0.768; with Obatoclax + OSI-027 (first compound 0.03162 µM) it was 0.709. The relative viability with Obatoclax + OSI-027 (first compound 0.1 µM) amounted to 0.667; with Obatoclax + OSI-027 (first compound 0.3162 µM) it was 0.742; with Obatoclax + OSI-027 (first compound 1 µM), 0.763; with Obatoclax + Vorinostat (first compound 0.01 µM) it was 0.698; in the assay with Obatoclax + Vorinostat (first compound 0.03162 µM) it was 0.765; with Obatoclax + Vorinostat (first compound 0.1 µM), 0.767. Moreover, the values for the relative viability with Obatoclax + Vorinostat (first compound 0.3162 µM) and with Obatoclax + Vorinostat (first compound 1 µM) were 0.753 and 0.728, respectively.

Regarding PC-14, the relative viability with Bortezomib + Trametinib (first compound 0.0002 µM) is 0.788; in the assay with Bortezomib + Trametinib (first compound 0.000632 µM), 0.799; in the assay with Bortezomib + Trametinib (first compound 0.002 µM), 0.356; with Bortezomib + Trametinib (first compound 0.006325 µM), 0.0475; with Bortezomib + Trametinib (first compound 0.02 µM) it was 0.0434; in assay [1] (first compound 0.08 µM) it was 0.634. The relative viability in assay [1] (first compound 0.253 µM) is 0.619; in assay [1] (first compound 0.8 µM) it was 0.55; in assay [1] (first compound 2.53 µM), 0.359; in assay [1] (first compound 8 µM) it was 0.0595; with Obatoclax + OSI-027 (first compound 0.01 µM), 0.729; with Obatoclax + OSI-027 (first compound 0.03162 µM) it was 0.834. Further, the relative viability with Obatoclax + OSI-027 (first compound 0.1 µM) amounted to 0.67; with Obatoclax + OSI-027 (first compound 0.3162 µM), 0.519; with Obatoclax + OSI-027 (first compound 1 µM), 0.0675; in the assay with Obatoclax + Vorinostat (first compound 0.01 µM) it was 0.625; in the assay with Obatoclax + Vorinostat (first compound 0.03162 µM), 0.736; in the assay with Obatoclax + Vorinostat (first compound 0.1 µM) it was 0.696. The values for the relative viability with Obatoclax + Vorinostat (first compound 0.3162 µM) and with Obatoclax + Vorinostat (first compound 1 µM) were 0.341 and 0.0549, respectively.

As to NCI-H322M, the relative viability with Bortezomib + Trametinib (first compound 0.0002 µM) came to 0.547; in the assay with Bortezomib + Trametinib (first compound 0.000632 µM), 0.455; in the assay with Bortezomib + Trametinib (first compound 0.002 µM), 0.47; in the assay with Bortezomib + Trametinib (first compound 0.006325 µM), 0.486; in the assay with Bortezomib + Trametinib (first compound 0.02 µM), 0.411; in assay [1] (first compound 0.08 µM), 0.509. In addition, the relative viability is 0.521 in assay [1] (first compound 0.253 µM); 0.506 in assay [1] (first compound 0.8 µM); 0.3 in assay [1] (first compound 2.53 µM); 0.229 in assay [1] (first compound 8 µM); 0.531 with Obatoclax + OSI-027 (first compound 0.01 µM); 0.338 in the assay with Obatoclax + OSI-027 (first compound 0.03162 µM). Further, the relative viability was found to be 0.462 with Obatoclax + OSI-027 (first compound 0.3162 µM); 0.386 with Obatoclax + OSI-027 (first compound 1 µM); 0.845 with Obatoclax + Vorinostat (first compound 0.01 µM); 0.799 in the assay with Obatoclax + Vorinostat (first compound 0.03162 µM); 1.2 in the assay with Obatoclax + Vorinostat (first compound 0.1 µM); 0.966 with Obatoclax + Vorinostat (first compound 0.3162 µM). In the assay with Obatoclax + Vorinostat (first compound 1 µM), the relative viability was found to be 0.945.

Take NCI-H1666: the relative viability in the assay with Bortezomib + Trametinib (first compound 0.0002 µM) was found to be 0.918; in the assay with Bortezomib + Trametinib (first compound 0.000632 µM), 0.972; with Bortezomib + Trametinib (first compound 0.002 µM) it was 0.914; with Bortezomib + Trametinib (first compound 0.006325 µM) it was 0.599; with Bortezomib + Trametinib (first compound 0.02 µM), 0.522; in assay [1] (first compound 0.08 µM), 0.559. Also, the relative viability in assay [1] (first compound 0.253 µM) was 0.549; in assay [1] (first compound 0.8 µM), 0.554; in assay [1] (first compound 2.53 µM), 0.336; in assay [1] (first compound 8 µM), 0.298; with Obatoclax + OSI-027 (first compound 0.01 µM), 0.881; with Obatoclax + OSI-027 (first compound 0.03162 µM) it was 0.89. The relative viability in the assay with Obatoclax + OSI-027 (first compound 0.1 µM) is 0.95; in the assay with Obatoclax + OSI-027 (first compound 0.3162 µM), 0.443; with Obatoclax + OSI-027 (first compound 1 µM) it was 0.5; with Obatoclax + Vorinostat (first compound 0.01 µM), 1.03; in the assay with Obatoclax + Vorinostat (first compound 0.03162 µM), 1.08; with Obatoclax + Vorinostat (first compound 0.1 µM) it was 1.11. For the same cell line, the relative viability with Obatoclax + Vorinostat (first compound 0.3162 µM) is 0.998; with Obatoclax + Vorinostat (first compound 1 µM) it was 0.754.
